Values of other authors in patent US20150374773A1, “Homeopathic Composition Comprising Hypericum Perforatum Extract And Essential Oils For The Treatment Of Neuropathic Pain” (NEURAGEN CORP., priority 2008, published 2015).

Test system: neuropathic pain
Conditions: literature statement

Q: With `NCC1(CC(=O)O)CCCCC1` [gabapentin] as the compound, how does the “efficacy in neuropathic pain” value read?
A: effective in painful diabetic neuropathy, mixed neuropathies, and postherpetic neuralgia

Q: With `Nc1nnc(-c2cccc(Cl)c2Cl)c(N)n1` [Lamotrigine] as the compound, how does the “efficacy in neuropathic pain” value read?
A: no better than placebo
